Experimental data taken from ChEMBL document CHEMBL1128093, “Discovery and optimization of indole pyrrolothiazole paf antagonists” (Bioorg Med Chem Lett, 1995).

Tests used:
Type in all cases: functional
Rattus norvegicus [1] = test: In vivo activity by inhibition of PAF-induced cutaneous vascular permeability in rats after intravenous administration
Rattus norvegicus [2] = test: In vivo activity by inhibition of PAF-induced cutaneous vascular permeability in rats after peroral administration; conditions: po
Rattus norvegicus [3] = test: In vivo activity by inhibition of PAF-induced cutaneous vascular permeability in rats after intravenous administration of 1 mg/kg dose
Rattus norvegicus [4] = test: xIn vivo activity by inhibition of PAF-induced cutaneous vascular permeability in rats after peroral administration; conditions: po
Rattus norvegicus [5] = test: In vivo activity by inhibition of PAF-induced cutaneous vascular permeability in rats after peroral administration of 10 mg/kg dose; conditions: route oral
Rattus norvegicus [6] = test: In vivo activity by inhibition of PAF-induced cutaneous vascular permeability in rats after peroral administration of 30 mg/kg dose; conditions: route oral

Row | SMILES | ED50 (Rattus norvegicus [1]) [mg/kg] | ED50 (Rattus norvegicus [2]) [mg/kg] | other results
1 | CN(C)C(=O)n1cc(C(=O)c2ccn3c2CSC3c2cccnc2)c2ccc(-c3ccc(F)cc3)cc21 (stereo not given) | 0.006 | 0.06 | –
2 | CN(C)C(=O)n1cc(C(=O)c2ccn3c2CSC3c2cccnc2)c2ccc(Sc3ccc(F)cc3)cc21 (stereo not given) | 0.27 | – | –
3 | CN(C)C(=O)n1cc(C(=O)c2ccn3c2CSC3c2cccnc2)c2ccc(OCc3ccccc3)cc21 (stereo not given) | – | 3.3 | –
4 | CN(C)C(=O)n1cc(C(=O)c2ccn3c2CSC3c2cccnc2)c2ccc(Cc3ccccc3)cc21 (stereo not given) | 0.09 | – | –
5 | NC(=O)n1cc(C(=O)c2ccn3c2CSC3c2cccnc2)c2ccc(-c3ccc(F)cc3)cc21 (stereo not given) | 0.01 | 0.06 | –
6 | CN(C)C(=O)n1cc(C(=O)c2ccn3c2CSC3c2cccnc2)c2ccc(Cl)cc21 (stereo not given) | – | 1.4 | inhibition in vivo at 1 mg/kg (Rattus norvegicus [3]): 42%
7 | CN(C)C(=O)n1cc(C(=O)c2ccn3c2CSC3c2cccnc2)c2ccc(Br)cc21 (stereo not given) | – | 1.5 | inhibition in vivo at 1 mg/kg (Rattus norvegicus [3]): 41%
8 | NCCn1cc(C(=O)c2ccn3c2CSC3c2cccnc2)c2ccc(-c3ccc(F)cc3)cc21 (stereo not given) | – | 1.3 | –
9 | CN(C)S(=O)(=O)n1cc(C(=O)c2ccn3c2CSC3c2cccnc2)c2ccc(-c3ccc(F)cc3)cc21 (stereo not given) | – | – | ED50 (Rattus norvegicus [4]): 5.5 mg/kg
10 | CN(C)C(=O)n1cc(C(=O)c2ccn3c2CSC3c2cccnc2)c2ccc(-c3cccnc3)cc21 (stereo not given) | – | – | inhibition in vivo at 10 mg/kg (Rattus norvegicus [5]): 58%
11 | O=C(O)CCn1cc(C(=O)c2ccn3c2CSC3c2cccnc2)c2ccc(-c3ccc(F)cc3)cc21 (stereo not given) | 0.1 | 5.1 | –
12 | CNC(=O)n1cc(C(=O)c2ccn3c2CSC3c2cccnc2)c2ccc(-c3ccc(F)cc3)cc21 (stereo not given) | – | 0.12 | –
13 | CCNC(=O)n1cc(C(=O)c2ccn3c2CSC3c2cccnc2)c2ccc(-c3ccc(F)cc3)cc21 (stereo not given) | 0.18 | – | –
14 | CN(C)C(=O)n1cc(C(=O)c2ccn3c2CSC3c2cccnc2)c2ccc(-c3ccccc3)cc21 (stereo not given) | 0.03 | 0.06 | –
15 | NNC(=O)n1cc(C(=O)c2ccn3c2CSC3c2cccnc2)c2ccc(-c3ccc(F)cc3)cc21 (stereo not given) | 0.04 | 0.57 | –
16 | O=C(c1ccn2c1CSC2c1cccnc1)c1cn(CCO)c2cc(-c3ccc(F)cc3)ccc12 (stereo not given) | 0.1 | 0.76 | –
17 | CN(C)C(=O)n1cc(C(=O)c2ccn3c2CSC3c2cccnc2)c2ccc(Oc3ccc(F)cc3)cc21 (stereo not given) | 0.03 | – | –
18 | CN(C)C(=O)n1cc(C(=O)c2ccn3c2CSC3c2cccnc2)c2ccccc21 (stereo not given) | – | – | inhibition in vivo at 30 mg/kg (Rattus norvegicus [6]): 34%
19 | CN(C)C(=O)Cn1cc(C(=O)c2ccn3c2CSC3c2cccnc2)c2ccc(-c3ccc(F)cc3)cc21 (stereo not given) | 0.009 | 0.12 | –
20 | O=C(c1ccn2c1CSC2c1cccnc1)c1c[nH]c2cc(-c3ccc(F)cc3)ccc12 (stereo not given) | – | 6.4 | –
21 | Cn1cc(C(=O)c2ccn3c2CSC3c2cccnc2)c2ccc(-c3ccc(F)cc3)cc21 (stereo not given) | 0.09 | – | –
